How the values were obtained:
[1] = test system: C33A cervical carcinoma cells; assay: caspase activation in lysates of treated cells (apoptosis); type: cell-based; conditions: C33A cancer cell line; 16 hr incubation; positive = 1.5-fold (150%) of dimethyl sulfoxide control
Protocol: (§1) H1299 non-small cell lung carcinoma cells, C33A cervical carcinoma cells, Mrc-5 normal lung fibroblasts (American Type Culture Collection, Manassas, Va. USA) and HMEC normal mammary epithelial cells (Clonetics San Diego, Calif., USA) were maintained in media recommended by the American Type Culture Collection. Cells were harvested and suspended at 2.5–5×10^5 cells/ml in media. A 45 μL aliquot of cell suspension was added to each well of a 96-well microtiter plate (PerkinElmer Life Sciences Inc, Boston, Mass. USA). Cells were incubated overnight in a 5% CO2-95% humidity incubator at 37° C. and then, 5 μL of a 10% dimethyl sulfoxide (Sigma-Aldrich Inc., St. Louis, Mo. USA) solution containing various concentrations of Compound 79 or 5 μL of 10% dimethyl sulfoxide (solvent control) were added. The plates were further incubated for 16 hr. […]
(§2) The reaction was then filtered using Sephadex G-10 Poly-Prep chromatography column (Amersham Biosciences, Inc, Piscataway, N.J., USA). […] The number of radioactive counts per minute (cpm) in each well of the sample plate was measured using a liquid scintillation counter (PerkinElmer Life Sciences Inc, Boston, Mass. USA). The potency of caspase cascade activation was determined by the percentage increase in cpm in wells compared to cells treated only with dimethyl sulfoxide.

[2] = test system: H1299 non-small cell lung carcinoma cells; assay: as above; type: cell-based; conditions: H1299 cancer cell line; 16 hr incubation; positive = 1.5-fold (150%) of dimethyl sulfoxide control
Protocol: as §1, §2

For `COC1=CC(c2ccc[nH]2)=N/C1=C/c1cc2ccccc2[nH]1` [Compound 79, 4-methoxy-5-(1H-indol-2yl-methylene)-2,2′-bi-1H-pyrrole], the “Concentration Required for Positive Caspase Activation” value [1] was 125 µM and the “Concentration Required for Positive Caspase Activation” value [2] was 250 µM.
